By Emax is commonly meant the greatest response seen or fitted, relative to the assay's reference. By pEC50 is commonly meant −log10 of the EC50, conventionally taken in molar units. By pKi is commonly meant the negative decadic logarithm of the Ki, by convention in mol/L.

Results on 32 molecules are retold here after patent US20060241172A1, “Benzodioxane and benzodioxolane derivatives and uses thereof” (Wyeth, priority 2005, published 2006).

Structures are written as SMILES. pEC50, pKi: −log10 of the molar value.

The target in one experiment is T1, human 5-HT2C receptor (Homo sapiens, UniProt P28335).
T1 sequence (P28335 33-458): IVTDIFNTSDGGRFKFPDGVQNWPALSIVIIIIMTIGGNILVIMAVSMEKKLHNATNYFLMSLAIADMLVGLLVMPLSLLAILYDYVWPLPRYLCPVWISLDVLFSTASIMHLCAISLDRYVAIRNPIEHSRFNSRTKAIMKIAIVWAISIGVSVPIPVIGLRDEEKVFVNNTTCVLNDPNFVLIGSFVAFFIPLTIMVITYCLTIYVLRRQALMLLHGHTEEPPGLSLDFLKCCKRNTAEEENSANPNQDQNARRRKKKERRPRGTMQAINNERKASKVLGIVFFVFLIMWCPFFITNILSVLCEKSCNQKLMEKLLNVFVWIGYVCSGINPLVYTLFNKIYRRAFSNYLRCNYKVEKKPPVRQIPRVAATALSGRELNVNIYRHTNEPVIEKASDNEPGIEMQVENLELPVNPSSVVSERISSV
Briefly: 5-HT2C receptor-stimulated calcium mobilization (FLIPR) in CHO cells. Particulars: for Emax: CHO, read-out: 5-HT2C Function EMax (%); for pEC50: read-out: 5-HT2C Function EC50. The experiment is classed as cell-based. (A change in cytosolic calcium serves as a functional read-out for many receptors and channels.)

Experiment [1] concerns the target T2, human 5-hydroxytryptamine-2C (h5-HT2C) receptor (Homo sapiens, UniProt P28335).
T2 construct: expressed in transfected cells; host or cells: CHO (Chinese Hamster Ovary) cells; membranes
T2 sequence (P28335 33-458): T1 sequence (P28335 33-458)
The experiment is described as follows: 5-HT2C binding: [125I]DOI displacement in membranes of transfected CHO cells. Particulars: read-out: 5-HT2C Binding Ki avg.

`Cc1ccccc1-c1cc(Cl)cc2c1OC(CN)O2` (stereo not drawn) [Compound I-91, [6-Chloro-4-(2-methyl-phenyl)-benzo[1,3]dioxol-2-yl]-methylamine]: at human 5-HT2C receptor, the Emax turned out to be 80% and the negative-log EC50 (pEC50) is greater than 7.00. Moreover, the negative logarithm of the Ki (pKi) in experiment [1] is greater than 7.30.
For `C[C@]1(CN)COc2cccc(-c3ccccc3Cl)c2O1` [Compound I-49, {[(2S)-8-(2-Chlorophenyl)-2-methyl-2,3-dihydro-1,4-benzodioxin-2-yl]methyl}amine], in that order: 70%, less than 6.30 and greater than 7.30.
For `NCC1COc2cccc(-c3cccc(F)c3F)c2O1` (stereo not drawn) [Compound I-13, {[8-(2,3-Difluorophenyl)-2,3-dihydro-1,4-benzodioxin-2-yl]methyl}amine], in that order: 70%, greater than 7.00 and greater than 7.30.
For `COc1ccccc1-c1cc(Cl)cc2c1O[C@@H](CN)CO2` [Compound I-61, (2S)-[6-Chloro-8-(2-methoxy-phenyl)-2,3-dihydro-benzo[1,4]dioxin-2-yl]-methylamine], in that order: 50%, 6.30 to 7.00 and greater than 7.30.
With `COc1ccccc1-c1cccc2c1OC(CN)CO2` (stereo not drawn) [Compound I-5, {[8-(2-Methoxyphenyl)-2,3-dihydro-1,4-benzodioxin-2-yl]methyl}amine], at human 5-HT2C receptor, the maximum response (Emax) was determined as 60% and the pEC50 was greater than 7.00. For the same molecule, the pKi in experiment [1] is 6.70 to 7.30.
For `CNCC1COc2cccc(-c3ccccc3C(F)(F)F)c2O1` (stereo not drawn) [Compound I-20, N-Methyl-1-{8-[2-(trifluoromethyl)phenyl]-2,3-dihydro-1,4-benzodioxin-2-yl}methanamine], in that order: 40%, less than 6.30 and 6.70 to 7.30.
As for `Clc1ccccc1-c1cccc2c1OC(CNCC1CC1)CO2` (stereo not drawn) [Compound I-41, {[8-(2-Chlorophenyl)-2,3-dihydro-1,4-benzodioxin-2-yl]methyl}(cyclopropylmethyl)-amine], at human 5-HT2C receptor, the Emax was 20% and the pEC50 was less than 6.30. In addition, in experiment [1], the pKi is 6.70 to 7.30.
For `NC[C@H]1COc2cc(Cl)cc(-c3ccccc3F)c2O1` [Compound I-59, (2S)-[6-Chloro-8-(2-fluoro-phenyl)-2,3-dihydro-benzo[1,4]dioxin-2-yl]-methylamine], in that order: 40%, 6.30 to 7.00 and greater than 7.30.
Consider `COc1cccc(-c2cc(Cl)cc3c2O[C@@H](CN)CO3)c1OC` [Compound I-63, (2S)-[6-Chloro-8-(2,3-dimethoxy-phenyl)-2,3-dihydro-benzo[1,4]dioxin-2-yl]-methyl amine], for which, at human 5-HT2C receptor, the maximum response (Emax) was found to be 50% and the pEC50 was less than 6.30. For the same molecule, the pKi in experiment [1] is greater than 7.30.
For `Cc1ccccc1-c1cccc2c1OC(CN)CO2` (stereo not drawn) [Compound I-3, {[8-(2-Methylphenyl)-2,3-dihydro-1,4-benzodioxin-2-yl]methyl}amine], in that order: 60%, greater than 7.00 and greater than 7.30.
For `Cc1cccc(C)c1-c1cc(Cl)cc2c1O[C@@H](CN)CO2` [Compound I-69, (2S)-[6-Chloro-8-(2,6-dimethyl-phenyl)-2,3-dihydro-benzo[1,4]dioxin-2-yl]-methyl amine], in that order: 60%, 6.30 to 7.00 and greater than 7.30.
Consider `NC[C@@H]1Oc2cc(F)cc(-c3c(Cl)cccc3Cl)c2O1` [Compound I-86, 1-[(2R)-4-(2,6-dichlorophenyl)-6-fluoro-1,3-benzodioxol-2-yl]methanamine], for which, at human 5-HT2C receptor, the maximal effect (Emax) turned out to be 80% and the negative logarithm of the EC50 (pEC50) is less than 6.30. For the same molecule, in experiment [1], the pKi is greater than 7.30.
For `NCC1COc2cccc(-c3ccc(F)cc3F)c2O1` (stereo not drawn) [Compound I-14, {[8-(2,4-Difluorophenyl)-2,3-dihydro-1,4-benzodioxin-2-yl]methyl}amine], in that order: 70%, greater than 7.00 and greater than 7.30.
For `Clc1ccccc1-c1cccc2c1OC(CNC1CC1)CO2` (stereo not drawn) [Compound I-43, N-{[8-(2-Chlorophenyl)-2,3-dihydro-1,4-benzodioxin-2yl]methyl}cyclopropanamine], in that order: 30%, less than 6.30 and less than 6.70.
For `Clc1ccc(-c2cccc3c2OC(CNCC2CC2)CO3)c(Cl)c1` (stereo not drawn) [Compound I-42, (Cyclopropylmethyl) {[8-(2,4-dichlorophenyl)-2,3-dihydro-1,4-benzodioxin-2-yl]methyl}amine], the pEC50 at human 5-HT2C receptor was less than 6.30. Also, in experiment [1], the negative logarithm of the Ki (pKi) was less than 6.70.
For `CN(C)CC1COc2cccc(-c3ccc(Cl)cc3Cl)c2O1` (stereo not drawn) [Compound I-39, {[8-(2,4-Dichlorophenyl)-2,3-dihydro-1,4-benzodioxin-2-yl]methyl}dimethylamine], on human 5-HT2C receptor, the Emax came to 20% and the pEC50 was 6.30 to 7.00. Further, in experiment [1], the pKi is greater than 7.30.
For `NCC1COc2cccc(-c3cc(F)ccc3F)c2O1` (stereo not drawn) [Compound I-15, {[8-(2,5-Difluorophenyl)-2,3-dihydro-1,4-benzodioxin-2-yl]methyl}amine], in that order: 60%, greater than 7.00 and greater than 7.30.
For `C=CCNCC1COc2cccc(-c3ccc(Cl)cc3Cl)c2O1` (stereo not drawn) [Compound I-40, N-{[8-(2,4-Dichlorophenyl)-2,3-dihydro-1,4-benzodioxin-2-yl]methyl}prop-2-en-1-amine], in that order: 30%, less than 6.30 and less than 6.70.
Take `NCC1Oc2cc(F)cc(-c3cc(Cl)ccc3Cl)c2O1` (stereo not drawn) [Compound I-81, 1-[4-(2,5-Dichloro-phenyl)-6-fluoro-1,3-benzodioxol-2-yl]methanamine]: at human 5-HT2C receptor, the Emax is 80% and the negative logarithm of the EC50 (pEC50) is greater than 7.00. Further, the negative-log Ki (pKi) in experiment [1] was greater than 7.30.
For `NCC1Oc2cc(F)cc(-c3ccccc3F)c2O1` (stereo not drawn) [Compound I-83, 1-[4-(2-Fluoro-phenyl)-6-fluoro-1,3-benzodioxol-2-yl]methanamine], in that order: 70%, greater than 7.00 and greater than 7.30.
For `Cc1cccc(-c2cccc3c2OC(CN)CO3)c1C` (stereo not drawn) [Compound I-10, {[8-(2,3-Dimethylphenyl)-2,3-dihydro-1,4-benzodioxin-2-yl]methyl}amine], on human 5-HT2C receptor, the Emax was determined as 50% and the pEC50 is 6.30 to 7.00. In experiment [1], the pKi was less than 6.70.
For `NCC1COc2cccc(-c3ccc(Cl)cc3Cl)c2O1` (stereo not drawn) [Compound I-7, {[8-(2,4-Dichlorophenyl)-2,3-dihydro-1,4-benzodioxin-2-yl]methyl}amine], in that order: 70%, greater than 7.00 and greater than 7.30.
For `NCC1COc2cccc(-c3ccccc3F)c2O1` (stereo not drawn) [Compound I-2, {[8-(2-Fluorophenyl)-2,3-dihydro-1,4-benzodioxin-2-yl]methyl}amine], in that order: 70%, greater than 7.00 and greater than 7.30.
With `NC[C@H]1COc2cccc(-c3ccccc3C(F)(F)F)c2O1` [Compound I-57, 1-{(2S)-8-[2-(trifluoromethyl)phenyl]-2,3-dihydro-1,4-benzodioxin-2-yl}methanamine], on human 5-HT2C receptor, the maximum response (Emax) stood at 50%. Besides, in experiment [1], the pKi was greater than 7.30.
On to `Clc1ccc(-c2cccc3c2OC(CNC2CCC2)CO3)c(Cl)c1` (stereo not drawn) [Compound I-45, N-{[8-(2,4-Dichlorophenyl)-2,3-dihydro-1,4-benzodioxin-2-yl]methyl}cyclobutanamine], for which, at human 5-HT2C receptor, the Emax was 30% and the pEC50 was less than 6.30. The pKi in experiment [1] was less than 6.70.
For `CNCC1COc2cccc(-c3cc(Cl)ccc3OC)c2O1` (stereo not drawn) [Compound I-31, {[8-(5-Chloro-2-methoxyphenyl)-2,3-dihydro-1,4-benzodioxin-2-yl]methyl}methylamine], in that order: 20%, 6.30 to 7.00 and less than 6.70.
For `Cc1ccccc1-c1cc(F)cc2c1OC(CN)O2` (stereo not drawn) [Compound I-80, 1-[4-(2-Methyl-phenyl)-6-fluoro-1,3-benzodioxol-2-yl]methanamine], in that order: 90%, greater than 7.00 and greater than 7.30.
Take `COc1ccc(Cl)cc1-c1cc(Cl)cc2c1O[C@@H](CN)CO2` [Compound I-68, (2S)-[6-Chloro-8-(5-chloro-2-methoxy-phenyl)-2,3-dihydro-benzo[1,4]dioxin-2-yl]-methylamine]: the pKi in experiment [1] was 6.70 to 7.30.
Still for that read-out and setting: then `COc1ccccc1-c1cccc2c1O[C@@](C)(CN)CO2` [Compound I-52, {[(2S)-8-(2-Methoxyphenyl)-2-methyl-2,3-dihydro-1,4-benzodioxin-2-yl]methyl}amine], with less than 6.70.
Same read-out and setting: in the case of `NCC1Oc2cc(F)cc(-c3cccc(Cl)c3)c2O1` (stereo not drawn) [Compound I-78, 1-[4-(3-Chlorophenyl)-6-fluoro-1,3-benzodioxol-2-yl]methanamine] it was 6.70 to 7.30.
The same measure, in the same setting: in the case of `Cc1cc(Cl)ccc1-c1cc(Cl)cc2c1OC(CN)O2` (stereo not drawn) [Compound I-97, [6-Chloro-4-(4-chloro-2-methyl-phenyl)-benzo[1,3]dioxol-2-yl]-methylamine] it was 6.70 to 7.30; in that of `C[C@]1(CN)COc2cccc(-c3ccc(Cl)cc3)c2O1` [Compound I-51, {[(2S)-8-(4-Chlorophenyl)-2-methyl-2,3-dihydro-1,4-benzodioxin-2-yl]methyl}amine], less than 6.70.
